Here are results for one compound from patent US20110014164A1, “EFFICIENT INDUCTION OF PLURIPOTENT STEM CELLS USING SMALL MOLECULE COMPOUNDS” (PRESIDENT AND FELLOWS OF HARVARD COLLEGE, priority 2008, published 2011).

Series [1] deals with human BJ and NHDF cells infected by Oct4 and Sox2. The experiment in a line: iPS induction in 2-factor (Oct4, Sox2) infected human fibroblasts. The conditions noted are these: both with VPA treatment. The format is cell-based. From the text:
b. In the published reprogramming protocol, infected human fibroblasts are typically cultured in fibroblast media first, then reseeded on feeders and switched to hES cell media about a week post-infection. In the modified protocol, human fibroblasts were replated immediately after infection, treated with VPA in hES media, and subsequently cultured in hES media.
c. The efficiency of iPS colony induction by 3 factors (Oct4, Sox2 and Klf4) and 2 factors (Oct4 and Sox2) with VPA treatment are plotted. Each dot represents one experiment; each bar represents the average for each condition.
Encouraged by the more efficient 3-factor reprogramming with VPA treatment, we explored the possibility of eliminating some of the transcription factors. The modified induction method with VPA treatment (FIG. 9b) was applied to human BJ and NHDF cells infected by different 2-factor combinations, and AP^+ iPS colonies were identified about 1 month post-infection in fibroblasts infected by Oct4 and Sox2. Karyotypically normal iPS cell lines (Table 2) were established from 2-factor infected human fibroblasts. On average, between 1 and 5 iPS lines were successfully established out of every 100,000 BJ or NHDF cells infected by Oct4 and Sox2 (FIG. 9c). […] The efficiency of reprogramming by 2 factors, however, was ˜100 fold lower than that by 3 factors both with VPA treatment. […]

The subject of series [2] is MEFs infected with the four factors (Oct4, Sox2, Klf4 and c-Myc). Description: cells. The conditions noted are these: Mus musculus; 4-factor infected MEFs; dose response; read-out: EC50 of reprogramming efficiency (percentage of Oct4-GFP positive cells induced). Type of series: cell-based, mouse.
Series [3] relates to MEFs infected with Oct4, Sox2, Klf4 (but no c-Myc). Description: Reprogramming efficiency of 3-factor infected Oct4-GFP MEFs, FACS analysis. The format is cell-based, mouse. The conditions noted are these: 2 mM for a week; FACS 10 days post-infection; 3-factor infected MEFs. Here is the method: FIG. 2(a) MEFs infected with Oct4, Sox2, Klf4 (but no c-Myc) were treated with 5′-azaC (2 μM) or VPA (2 mM) for a week, the percentage of Oct4-GFP positive cells induced was measured through FACS analysis at 10 days post-infection, and compared to infected MEFs without treatment. n=4 for each condition.
Retroviral introduction of c-Myc could cause tumorigenecity in cells derived from the iPS cells thus generated^2. […] Similar low efficiency was also reported for induction of iPS cells from mouse fibroblasts without c-Myc^24. We tested whether treating the cells with 5′-azaC or VPA improves the efficiency of iPS colony formation without the need for c-Myc. MEFs were first infected with Oct4, Sox2 and Klf4, then treated with 5′-azaC or VPA for a week starting 1 day post-infection. […] Consistent with the FACS data, a 30-40 fold increase of GFP positive colonies was observed compared to control MEFs without treatment (FIG. 2c). This allowed for picking of iPS colonies within two weeks post-infection, sooner than the typical ˜30 days post-infection or later without chemical treatment^13, 24.
Moloney-based retroviral vector (pMXs) containing the murine complementary DNAs of Oct4, Sox2, c-Myc, and Klf4 were obtained from Addgene^1. […]
(Flow cytometry measures light scatter and fluorescence of single cells or particles in a stream.)

Series [4] concerns primary human fibroblasts, BJ and NHDF, infected by Oct4, Sox2 and Klf4. The experiment in a line: iPS colony induction in 3-factor (Oct4, Sox2, Klf4) infected human fibroblasts. Type of series: cell-based.
Source text: AP^+ colonies were compared for 3-factor (Oct4, Sox2 and Klf4) infected BJ fibroblasts with or without VPA treatment at 25 days post-infection.
Human fibroblasts were first infected by Moloney murine leukemia retroviruses expressing the Oct4, Sox2 and Klf4 genes, and treated with VPA for 1 to 2 weeks.
Human fibroblasts were infected by different transcription factor combinations, and replated in fibroblast medium typically at 2×10^5 cells per well in gelatin-coated 6-well plates at 0 day post-infection. Cells were cultured in hES cell media starting from 1 day post-infection.
Series [5] in a line: Effect of VPA treatment on cell cycles. The format is cell-based. From the text: (§1) Therefore, VPA partially reprograms MEFs towards more ES cell-like.
A further series has as its system iPS-m cell lines. Description: Karyotype (chromosome) analysis of iPS-m cell lines induced by VPA treatment. Type of series: cell-based, mouse.
Source text: Supplementary FIG. 4. Chromosome analysis of iPS-m cells. […] Shown here is a representative chromosome analysis image from iPS-m84.
as §1

The test system of series [6] is MEFs infected with the four factors (Oct4, Sox2, Klf4 and c-Myc). Description: GFP positive iPS colony number in 4-factor infected MEFs. The format is cell-based, mouse. On the procedure:
FIG. 1(c) Representative pictures at 11 days post-infection showing a significant increase of GFP positive iPS colonies in infected MEFs with VPA treatment compared to non-treated control.
Consistent with the FACS data, GFP positive iPS colonies emerge sooner and in greater numbers with VPA treatment. […] GFP positive colonies only start to emerge after 10 days post-infection in untreated cells.
For the generation of mouse iPS cells, infected MEFs were cultured in mouse ES cell media until iPS colonies were ready to be picked. In some experiments, knockout serum replacement was used instead of the Hyclone FBS in the mouse ES cell media, which appeared to accelerate the reprogramming process, consistent with a recent report^26. Chemical treatment started 1 or 2 days post-infection and lasted for a week in general. iPS colonies were picked between 9-21 days post-infection based on GFP expression and colony morphology. The picked colonies were then expanded and maintained on irradiated MEF feeder layers in mouse ES cell media.

The structures appear in SMILES notation.

With `CCCC(CCC)C(=O)O` [VPA, valproic acid], in series [1], the “efficiency of reprogramming by 2 factors lower than by 3 factors” value is reported as roughly 100 fold. Besides, in series [2], the EC50 (usually the concentration at which the effect is half-maximal) was 1900 µM. Besides, in series [3], the “improvement of reprogramming efficiency” value is reported as 50 fold. Besides, the “promotion of the efficiency of iPS colony formation” value in series [4] (human skin cells infected with the three factors) was roughly 30 fold. Besides, the “improvement over the first report on reprogramming by the same 3-factor combination (<0.001%)” value in series [4] (optimized induction protocol together with VPA treatment) was 1000 fold. For the same compound, in series [5], the “effect on cell cycles” value is given as “does not accelerate cell cycles”. In addition, the “iPS-m cell lines with normal karyotypes” value with iPS-m cell lines (iPS-m81, 82, 83 and 84 induced by VPA treatment) is “Three out of four”. For the same compound, the “genetic changes at the level of chromosomal abnormalities” value in the series with iPS-m cell lines (iPS-m cell lines induced with VPA (Table 1)) is “Nor does VPA treatment cause detectable genetic changes”. For the same compound, in series [6] (8 days post-infection, out of 270,000 cells seeded, no colonies without chemical treatment), the “average number of GFP positive colonies” value is recorded as 241 colonies. In addition, in series [6] (two weeks post-infection), the “difference in colony number, treated versus non-treated” value is on record as “more than 40 fold”.
